Test results from ChEMBL document CHEMBL4507296 (2021).

Key:
[1] = target: Serine/threonine-protein kinase MRCK beta (Homo sapiens) (UniProt Q9Y5S2); details: Compound concentration 1000.0 nM
[2] = target: Ribosomal protein S6 kinase alpha-4 (Homo sapiens) (UniProt O75676); details: Compound concentration 1000.0 nM
[3] = target: Tyrosine-protein kinase Mer (Homo sapiens) (UniProt Q12866); details: Compound concentration 1000.0 nM
[4] = target: T1, Alpha-2B adrenergic receptor (Homo sapiens) (UniProt P18089); details: Compound concentration 10.0 uM
T1 sequence (whole entry): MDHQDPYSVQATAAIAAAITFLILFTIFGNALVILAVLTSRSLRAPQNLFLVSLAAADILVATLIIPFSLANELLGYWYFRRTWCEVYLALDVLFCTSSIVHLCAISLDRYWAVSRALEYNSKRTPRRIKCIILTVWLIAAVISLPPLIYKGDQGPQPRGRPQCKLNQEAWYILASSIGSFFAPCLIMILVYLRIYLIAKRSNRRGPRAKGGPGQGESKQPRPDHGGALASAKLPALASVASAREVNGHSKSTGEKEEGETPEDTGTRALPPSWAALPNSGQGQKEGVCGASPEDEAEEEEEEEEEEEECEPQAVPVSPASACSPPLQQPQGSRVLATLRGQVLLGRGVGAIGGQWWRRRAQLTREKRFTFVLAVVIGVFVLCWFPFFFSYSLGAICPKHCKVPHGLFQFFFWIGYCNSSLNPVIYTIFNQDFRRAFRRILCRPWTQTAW

[5] = target: Phosphatidylinositol 4,5-bisphosphate 3-kinase catalytic subunit delta isoform (Homo sapiens) (UniProt O00329); details: Compound concentration 1000.0 nM
[6] = target: Receptor tyrosine-protein kinase erbB-3 (Homo sapiens) (UniProt P21860); details: Compound concentration 1000.0 nM
[7] = tested on: Epidermal growth factor receptor (Homo sapiens), P00533 [UNDEFINED MUTATION]; details: Compound concentration 1000.0 nM
[8] = target: Discoidin domain-containing receptor 2 (Homo sapiens) (UniProt Q16832); details: Compound concentration 1000.0 nM
[9] = target: Alpha-1D adrenergic receptor (Homo sapiens) (UniProt P25100); details: Compound concentration 10.0 uM
[10] = target: Cyclin-dependent kinase 15 (Homo sapiens) (UniProt Q96Q40); details: Compound concentration 1000.0 nM
[11] = target: BMP-2-inducible protein kinase (Homo sapiens) (UniProt Q9NSY1); details: Compound concentration 1000.0 nM
[12] = target: Mitogen-activated protein kinase kinase kinase 20 (Homo sapiens) (UniProt Q9NYL2); details: Compound concentration 1000.0 nM
[13] = target: Ephrin type-A receptor 8 (Homo sapiens) (UniProt P29322); details: Compound concentration 1000.0 nM
[14] = target: Tyrosine-protein kinase Fyn (Homo sapiens) (UniProt P06241); details: Compound concentration 1000.0 nM
[15] = target: Hepatocyte growth factor receptor (Homo sapiens) (UniProt P08581); details: Compound concentration 1000.0 nM
[16] = target: Myosin light chain kinase, smooth muscle (Homo sapiens) (UniProt Q15746); details: Compound concentration 1000.0 nM
[17] = target: Mitogen-activated protein kinase kinase kinase 5 (Homo sapiens) (UniProt Q99683); details: Compound concentration 1000.0 nM
[18] = tested on: Epidermal growth factor receptor (Homo sapiens), P00533 [T790M]; details: Compound concentration 1000.0 nM
[19] = target: High affinity nerve growth factor receptor (Homo sapiens) (UniProt P04629); details: Compound concentration 1000.0 nM
[20] = target: Tyrosine-protein kinase Srms (Homo sapiens) (UniProt Q9H3Y6); details: Compound concentration 1000.0 nM
[21] = target: Mitogen-activated protein kinase 13 (Homo sapiens) (UniProt O15264); details: Compound concentration 1000.0 nM
[22] = target: Serine/threonine-protein kinase pim-3 (Homo sapiens) (UniProt Q86V86); details: Compound concentration 1000.0 nM
[23] = target: Dual specificity mitogen-activated protein kinase kinase 4 (Homo sapiens) (UniProt P45985); details: Compound concentration 1000.0 nM
[24] = target: Serine/threonine-protein kinase D1 (Homo sapiens) (UniProt Q15139); details: Compound concentration 1000.0 nM
[25] = target: Membrane-associated tyrosine- and threonine-specific cdc2-inhibitory kinase (Homo sapiens) (UniProt Q99640); details: Compound concentration 1000.0 nM
[26] = target: Serine/threonine-protein kinase Nek4 (Homo sapiens) (UniProt P51957); details: Compound concentration 1000.0 nM
[27] = target: Tyrosine-protein kinase Yes (Homo sapiens) (UniProt P07947); details: Compound concentration 1000.0 nM
[28] = target: Serine/threonine-protein kinase 32C (Homo sapiens) (UniProt Q86UX6); details: Compound concentration 1000.0 nM
[29] = target: Serine/threonine-protein kinase Nek1 (Homo sapiens) (UniProt Q96PY6); details: Compound concentration 1000.0 nM
[30] = target: Tyrosine-protein kinase JAK3 (Homo sapiens) (UniProt P52333); details: Compound concentration 1000.0 nM
[31] = target: TRAF2 and NCK-interacting protein kinase (Homo sapiens) (UniProt Q9UKE5); details: Compound concentration 1000.0 nM
[32] = target: Interleukin-1 receptor-associated kinase 3 (Homo sapiens) (UniProt Q9Y616); details: Compound concentration 1000.0 nM
[33] = target: GABA-A receptor; anion channel (Rattus norvegicus) (UniProt O09028+P15431+P18506+P18508+P19969+P20236+P23574+P23576+P28471+P28473+P30191+P62813+P63079+P63138+Q91ZM7+Q9ES14); details: Compound concentration 10.0 uM
[34] = target: Tyrosine-protein kinase SYK (Homo sapiens) (UniProt P43405); details: Compound concentration 1000.0 nM
[35] = target: Mitogen-activated protein kinase kinase kinase kinase 2 (Homo sapiens) (UniProt Q12851); details: Compound concentration 1000.0 nM
Mitogen-activated protein kinase kinase kinase kinase 2 (Homo sapiens), sequence (Q12851 whole entry): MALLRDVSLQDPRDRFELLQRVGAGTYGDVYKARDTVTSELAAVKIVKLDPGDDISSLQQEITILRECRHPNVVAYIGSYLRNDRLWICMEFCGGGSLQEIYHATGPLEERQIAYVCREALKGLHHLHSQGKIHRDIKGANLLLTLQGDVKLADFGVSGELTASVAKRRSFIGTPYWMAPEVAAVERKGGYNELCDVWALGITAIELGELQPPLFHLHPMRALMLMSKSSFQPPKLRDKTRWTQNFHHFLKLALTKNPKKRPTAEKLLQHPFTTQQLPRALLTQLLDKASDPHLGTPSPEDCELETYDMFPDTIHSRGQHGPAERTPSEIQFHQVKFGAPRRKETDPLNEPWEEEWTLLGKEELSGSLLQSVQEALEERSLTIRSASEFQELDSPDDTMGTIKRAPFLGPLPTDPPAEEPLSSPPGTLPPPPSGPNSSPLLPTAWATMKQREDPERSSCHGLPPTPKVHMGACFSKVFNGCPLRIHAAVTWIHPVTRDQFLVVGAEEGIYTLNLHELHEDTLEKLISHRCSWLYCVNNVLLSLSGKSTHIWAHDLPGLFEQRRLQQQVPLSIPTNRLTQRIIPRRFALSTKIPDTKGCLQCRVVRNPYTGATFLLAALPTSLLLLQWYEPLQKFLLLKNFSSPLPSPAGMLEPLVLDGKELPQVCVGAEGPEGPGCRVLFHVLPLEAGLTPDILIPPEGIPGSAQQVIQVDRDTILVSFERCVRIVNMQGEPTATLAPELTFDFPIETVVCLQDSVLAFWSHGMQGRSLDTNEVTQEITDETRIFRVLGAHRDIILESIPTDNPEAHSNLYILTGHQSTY

Dual specificity mitogen-activated protein kinase kinase 4 (Homo sapiens), sequence (P45985 whole entry): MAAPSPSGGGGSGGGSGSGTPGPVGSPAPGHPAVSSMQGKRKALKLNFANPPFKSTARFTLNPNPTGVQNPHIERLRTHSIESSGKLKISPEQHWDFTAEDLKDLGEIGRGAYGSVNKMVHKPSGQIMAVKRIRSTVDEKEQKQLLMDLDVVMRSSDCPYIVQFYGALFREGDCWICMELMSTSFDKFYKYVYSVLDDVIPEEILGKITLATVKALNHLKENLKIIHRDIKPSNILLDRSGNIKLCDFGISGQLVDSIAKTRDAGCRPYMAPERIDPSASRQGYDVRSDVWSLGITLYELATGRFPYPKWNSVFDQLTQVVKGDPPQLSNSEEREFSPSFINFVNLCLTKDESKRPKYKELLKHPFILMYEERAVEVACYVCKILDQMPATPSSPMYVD
Serine/threonine-protein kinase 32C (Homo sapiens), sequence (Q86UX6 whole entry): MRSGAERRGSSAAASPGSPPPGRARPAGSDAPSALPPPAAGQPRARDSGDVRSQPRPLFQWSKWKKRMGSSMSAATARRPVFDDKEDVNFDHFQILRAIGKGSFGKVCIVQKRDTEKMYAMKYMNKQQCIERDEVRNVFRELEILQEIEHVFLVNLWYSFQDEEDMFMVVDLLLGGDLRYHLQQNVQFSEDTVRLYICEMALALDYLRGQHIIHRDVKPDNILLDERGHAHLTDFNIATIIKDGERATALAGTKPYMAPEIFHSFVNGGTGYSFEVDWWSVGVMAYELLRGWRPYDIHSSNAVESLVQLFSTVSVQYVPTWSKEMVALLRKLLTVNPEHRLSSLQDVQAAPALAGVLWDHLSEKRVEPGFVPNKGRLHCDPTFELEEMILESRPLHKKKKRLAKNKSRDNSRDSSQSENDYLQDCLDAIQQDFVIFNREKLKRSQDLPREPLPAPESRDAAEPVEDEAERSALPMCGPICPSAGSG
Hepatocyte growth factor receptor (Homo sapiens), sequence (P08581 whole entry): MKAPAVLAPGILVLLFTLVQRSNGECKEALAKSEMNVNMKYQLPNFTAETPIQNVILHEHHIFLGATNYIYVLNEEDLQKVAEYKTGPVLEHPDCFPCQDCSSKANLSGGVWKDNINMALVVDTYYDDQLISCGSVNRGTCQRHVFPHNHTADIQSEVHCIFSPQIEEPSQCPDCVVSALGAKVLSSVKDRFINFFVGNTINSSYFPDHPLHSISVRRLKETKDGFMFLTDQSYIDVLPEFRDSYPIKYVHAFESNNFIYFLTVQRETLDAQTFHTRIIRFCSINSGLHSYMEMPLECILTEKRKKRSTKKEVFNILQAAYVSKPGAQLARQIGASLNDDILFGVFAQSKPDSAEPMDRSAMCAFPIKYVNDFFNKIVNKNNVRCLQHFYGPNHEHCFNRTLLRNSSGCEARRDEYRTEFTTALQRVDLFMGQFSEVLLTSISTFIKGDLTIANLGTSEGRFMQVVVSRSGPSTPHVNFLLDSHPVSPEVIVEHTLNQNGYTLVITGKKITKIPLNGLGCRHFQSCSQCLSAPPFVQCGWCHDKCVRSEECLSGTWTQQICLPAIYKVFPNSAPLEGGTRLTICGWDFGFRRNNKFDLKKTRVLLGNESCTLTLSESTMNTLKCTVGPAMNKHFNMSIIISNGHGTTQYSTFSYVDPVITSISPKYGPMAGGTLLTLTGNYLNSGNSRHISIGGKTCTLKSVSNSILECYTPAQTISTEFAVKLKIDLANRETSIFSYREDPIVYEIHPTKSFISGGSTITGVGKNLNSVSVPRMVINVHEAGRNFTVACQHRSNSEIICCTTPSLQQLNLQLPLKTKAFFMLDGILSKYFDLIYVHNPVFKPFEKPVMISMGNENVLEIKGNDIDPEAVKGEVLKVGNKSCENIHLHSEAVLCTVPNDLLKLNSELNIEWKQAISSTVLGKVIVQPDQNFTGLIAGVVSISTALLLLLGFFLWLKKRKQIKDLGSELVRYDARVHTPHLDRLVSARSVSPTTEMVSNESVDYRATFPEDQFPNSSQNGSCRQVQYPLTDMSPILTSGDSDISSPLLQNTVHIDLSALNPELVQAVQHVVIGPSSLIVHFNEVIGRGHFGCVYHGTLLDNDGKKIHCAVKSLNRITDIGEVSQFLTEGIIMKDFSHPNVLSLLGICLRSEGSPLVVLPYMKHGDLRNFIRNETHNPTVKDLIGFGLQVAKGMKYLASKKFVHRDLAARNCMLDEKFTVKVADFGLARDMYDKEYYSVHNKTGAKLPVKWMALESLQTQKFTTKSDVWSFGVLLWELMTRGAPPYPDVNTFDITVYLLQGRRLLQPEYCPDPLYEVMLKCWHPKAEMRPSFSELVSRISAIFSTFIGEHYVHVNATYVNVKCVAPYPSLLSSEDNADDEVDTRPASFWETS
BMP-2-inducible protein kinase (Homo sapiens), sequence (Q9NSY1 whole entry, looked up): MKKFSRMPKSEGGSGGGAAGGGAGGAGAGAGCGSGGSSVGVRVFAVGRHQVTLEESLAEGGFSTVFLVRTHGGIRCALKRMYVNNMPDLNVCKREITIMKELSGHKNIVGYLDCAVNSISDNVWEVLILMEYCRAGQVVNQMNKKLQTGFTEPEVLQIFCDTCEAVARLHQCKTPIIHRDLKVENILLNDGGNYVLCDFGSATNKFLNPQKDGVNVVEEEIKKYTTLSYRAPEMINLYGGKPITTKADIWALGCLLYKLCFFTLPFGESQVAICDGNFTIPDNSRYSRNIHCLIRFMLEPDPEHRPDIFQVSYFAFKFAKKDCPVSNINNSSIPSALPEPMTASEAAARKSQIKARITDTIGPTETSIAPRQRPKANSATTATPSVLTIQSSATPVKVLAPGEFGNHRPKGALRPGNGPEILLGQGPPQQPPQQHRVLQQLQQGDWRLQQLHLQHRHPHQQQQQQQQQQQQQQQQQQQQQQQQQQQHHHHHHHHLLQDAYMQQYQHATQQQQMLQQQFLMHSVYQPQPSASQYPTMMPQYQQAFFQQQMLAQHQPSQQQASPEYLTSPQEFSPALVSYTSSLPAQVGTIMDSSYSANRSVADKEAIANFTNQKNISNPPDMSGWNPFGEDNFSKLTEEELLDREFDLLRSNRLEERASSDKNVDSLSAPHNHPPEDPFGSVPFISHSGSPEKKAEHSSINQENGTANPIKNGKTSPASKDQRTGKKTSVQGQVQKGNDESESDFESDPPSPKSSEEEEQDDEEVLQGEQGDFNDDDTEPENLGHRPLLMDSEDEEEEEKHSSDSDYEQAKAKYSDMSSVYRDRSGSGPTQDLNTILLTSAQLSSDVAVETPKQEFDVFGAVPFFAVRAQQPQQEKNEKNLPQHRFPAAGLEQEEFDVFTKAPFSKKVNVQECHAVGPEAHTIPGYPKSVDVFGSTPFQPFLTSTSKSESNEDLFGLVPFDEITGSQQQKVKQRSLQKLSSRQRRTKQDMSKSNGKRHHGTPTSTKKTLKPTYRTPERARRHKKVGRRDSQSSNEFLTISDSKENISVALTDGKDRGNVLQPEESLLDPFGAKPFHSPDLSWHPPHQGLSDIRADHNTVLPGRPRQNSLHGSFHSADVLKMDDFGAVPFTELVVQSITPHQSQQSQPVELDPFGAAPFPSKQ
Alpha-1D adrenergic receptor (Homo sapiens), sequence (P25100 whole entry): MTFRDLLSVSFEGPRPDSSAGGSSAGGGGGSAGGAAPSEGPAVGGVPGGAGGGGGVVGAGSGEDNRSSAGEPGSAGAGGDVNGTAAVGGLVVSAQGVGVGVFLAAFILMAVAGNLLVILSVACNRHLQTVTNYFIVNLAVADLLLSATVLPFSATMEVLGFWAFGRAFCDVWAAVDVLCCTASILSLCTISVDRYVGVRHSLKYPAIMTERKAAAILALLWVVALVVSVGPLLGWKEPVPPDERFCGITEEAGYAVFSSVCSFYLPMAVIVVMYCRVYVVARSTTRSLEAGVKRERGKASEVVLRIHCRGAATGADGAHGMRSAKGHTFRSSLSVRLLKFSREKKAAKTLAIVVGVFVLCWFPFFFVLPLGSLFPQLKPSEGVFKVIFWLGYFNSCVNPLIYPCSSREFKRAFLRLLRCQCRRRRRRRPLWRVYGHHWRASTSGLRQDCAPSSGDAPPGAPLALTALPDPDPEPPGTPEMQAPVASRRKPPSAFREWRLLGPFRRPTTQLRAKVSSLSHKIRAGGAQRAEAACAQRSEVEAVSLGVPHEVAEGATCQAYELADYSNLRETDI

C[C@H](c1ccc(F)cc1)N(Cc1cccc(C(=O)O)c1)C(=O)c1cnc2ccccc2c1 [PF-05105679]
inactive: residual activity [1] 94% | residual activity [2] 85% | residual activity [3] 95% | inhibition [4] 20.2% | residual activity [5] 100% | residual activity [6] 68% | residual activity [7] 100% | residual activity [8] 96% | inhibition [9] 27.3% | residual activity [10] 100% | residual activity [11] 96% | residual activity [12] 100% | residual activity [13] 76% | residual activity [14] 63% | residual activity [15] 100% | residual activity [16] 76% | residual activity [17] 100% | residual activity [18] 100% | residual activity [19] 100% | residual activity [20] 100% | residual activity [21] 95% | residual activity [22] 100% | residual activity [23] 100% | residual activity [24] 100% | residual activity [25] 68% | residual activity [26] 100% | residual activity [27] 100% | residual activity [28] 100% | residual activity [29] 100% | residual activity [30] 100% | residual activity [31] 95% | residual activity [32] 100% | inhibition [33] 28.4% | residual activity [34] 87% | residual activity [35] 100%
